Test results from US5026703A, “Peptide oxytocin antagonists” (priority 1990, dated 1991).
pIC50: −log10 of the molar value. Counter-ions that a name gives are not always drawn. Like-named read-outs stand apart in the source and are kept apart here. *1 amine or outer side, *2 acyl side, *3 side chain or, on linkers, in order; H or OH if unused. Where a SMILES comes first, the peptide text is derived from it. [ ]: non-standard residue; d: D form. X13 = CC[C@H](C)[C@H](NC(=S)[C@@H](Cc1ccccc1)N[*:1])C(=O)[*:2]; X14 = CCOC(=O)C(C(=O)OCC)C1C=NN([*:1])[C@H](C(=O)[*:2])C1; X11 = CC(C)(C)OC(=O)CSC1=NN([*:1])[C@H](C(=O)[*:2])CC1; X2 = O=C([C@@H]1[C@@H](O)[C@@H](O)C=NN1[*:1])[*:2]; X4 = CN(C)CCNC1C=NN([*:1])[C@H](C(=O)[*:2])C1; X8 = O=C([C@@H]1CC(N2CCCC2)C=NN1[*:1])[*:2]; X10 = O=C1CC[C@@H](C(=O)[*:2])N([*:1])N1; Piz(1,6-dehydro) = O=C(O)[C@@H]1CCC=NN1; X3 = C=C1C=NN([*:1])[C@H](C(=O)[*:2])C1; X7 = CSC1=NN([*:1])[C@H](C(=O)[*:2])CC1; dPiz(1,6-dehydro) = O=C(O)[C@H]1CCC=NN1; X16 = CN1CCC[C@@H](C(=O)[*:2])N1[*:1]; X15 = CN1CCC[C@H](C(=O)[*:2])N1[*:1]; dNMeCha = CN[C@H](CC1CCCCC1)C(=O)O; X1 = O=C([C@H]1CCCNN1[*:1])[*:2]; dNMeF = CN[C@H](Cc1ccccc1)C(=O)O; dCha = N[C@H](CC1CCCCC1)C(=O)O

Assays:
[1] = molecular target: T1, uterine OT receptors (Rattus norvegicus, UniProt P70536); test: [3H]OT radioligand binding to uterine OT receptors, crude membrane preparation; settings: for IC50: uteri of DES-treated rats, 1 nM [3H]OT, 60 min, 22° C., inhibits specific binding by 50%, read-out: Receptor Binding Results IC50 (nM) [3H]OT
T1 construct: from tissue; host or cells: uterus of DES-treated rats, crude membranes
T1 sequence (P70536 1-388): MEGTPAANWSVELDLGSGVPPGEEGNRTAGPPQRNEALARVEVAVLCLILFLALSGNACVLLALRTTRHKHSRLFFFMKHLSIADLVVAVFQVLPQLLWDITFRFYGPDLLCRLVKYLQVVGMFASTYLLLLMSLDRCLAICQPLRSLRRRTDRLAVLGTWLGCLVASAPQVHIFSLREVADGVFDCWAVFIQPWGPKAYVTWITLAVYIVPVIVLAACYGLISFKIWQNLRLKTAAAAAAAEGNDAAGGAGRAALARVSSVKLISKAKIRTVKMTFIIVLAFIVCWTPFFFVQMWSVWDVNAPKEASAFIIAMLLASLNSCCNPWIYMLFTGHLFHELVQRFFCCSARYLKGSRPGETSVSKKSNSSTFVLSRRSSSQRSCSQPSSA
Method: The high affinity binding of [^3 H]OT ([tyrosyl, 3,5-[^3 H]OT; 30-60 Ci/mmol; New England Nuclear Boston, Mass.) to uterine OT receptors was based on an assay* using a crude membrane preparation of uteri taken from diethylstilbestrol dipropionate (DES)-treated (0.3 mg/kg, ip; 18-24) rats. Competition studies were conducted at equilibrium (60 min; 22° C.) using 1 nM [^3 H]OT in the following assay buffer: 50 mM Tris-HCl, 5 mM MgCl2, and 0.1% BSA, pH 7.4. Nonspecific binding (10% of the total binding) was determined using 1 μM unlabeled OT and the binding reaction was terminated by filtration through glass fiber filters using a cell harvester (model 7019, Skatron, Inc., Sterling, Va.).
*Fuchs, A-R; Fuchs, F; Soloff, MS. 1985 J. Clin. Endocrinol. Metab. 60:37.

[2] = molecular target: AVP-V1 sites (Rattus norvegicus, UniProt P30560); test: [3H]AVP radioligand binding to male rat liver crude membrane preparation (AVP-V1 sites); settings: for IC50: male rat liver membranes, 1 nM [3H]AVP, 30 min at 30° C., read-out: Receptor Binding Results IC50 (nM) [^3 H]-AVP-V1
Sequence of AVP-V1 sites (P30560 whole entry): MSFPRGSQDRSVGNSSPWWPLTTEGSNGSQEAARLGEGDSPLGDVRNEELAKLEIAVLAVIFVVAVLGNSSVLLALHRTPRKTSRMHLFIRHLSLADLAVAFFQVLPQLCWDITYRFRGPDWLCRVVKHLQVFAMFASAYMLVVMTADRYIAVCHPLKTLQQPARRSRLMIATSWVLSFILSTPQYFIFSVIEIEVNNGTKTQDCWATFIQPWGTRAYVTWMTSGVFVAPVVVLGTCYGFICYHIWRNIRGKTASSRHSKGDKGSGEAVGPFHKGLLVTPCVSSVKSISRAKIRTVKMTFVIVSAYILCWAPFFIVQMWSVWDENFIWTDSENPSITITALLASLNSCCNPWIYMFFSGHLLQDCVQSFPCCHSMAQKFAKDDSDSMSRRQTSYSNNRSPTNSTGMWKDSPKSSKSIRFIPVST
Method: (§1) Nonspecific binding (5-10% of the total binding) was determined using 10 μM unlabeled AVP, and the binding reaction was terminated by filtration as described above for the [^3 H]OT binding assay.
(§2) +Butlen, D; Guillon, G; Rajerison, RM; Jard, S; Sawyer, WH; Manning, M. 1978 Mol Pharmacol 14:1006.

[3] = molecular target: AVP-V2 sites (Rattus norvegicus, UniProt Q00788); test: [3H]AVP radioligand binding to rat kidney medulla crude membrane preparation (AVP-V2 sites); settings: rat kidney medulla membranes; 2 nM [3H]AVP; 30 min at 30° C.; read-out: Receptor Binding Results IC50 (nM) [^3 H]-AVP-V2
Sequence of AVP-V2 sites (Q00788 whole entry): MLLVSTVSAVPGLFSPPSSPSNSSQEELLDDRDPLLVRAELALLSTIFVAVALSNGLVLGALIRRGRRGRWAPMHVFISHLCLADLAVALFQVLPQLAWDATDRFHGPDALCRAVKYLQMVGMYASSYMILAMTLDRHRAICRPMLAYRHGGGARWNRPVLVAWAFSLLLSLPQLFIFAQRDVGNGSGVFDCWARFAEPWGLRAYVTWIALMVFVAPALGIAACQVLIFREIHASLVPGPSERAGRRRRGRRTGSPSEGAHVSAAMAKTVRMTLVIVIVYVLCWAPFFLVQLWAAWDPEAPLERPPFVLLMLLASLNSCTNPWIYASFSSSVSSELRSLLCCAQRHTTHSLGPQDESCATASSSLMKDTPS
Method: as §1, §2

SMILES	IC50 [1] [nM]	IC50 [2] [nM]	IC50 [3] [nM]	pIC50 [1]	pIC50 [2]
CC[C@H](C)[C@@H]1NC(=O)[C@@H](Cc2ccccc2)NC(=O)[C@@H]2CCCN2C(=O)[C@@H](Cc2ccccc2)N(C)C(=O)[C@@H]2CCCN(C)N2C(=O)[C@H]2CCCN(C)N2C1=O [Example 6, cyclo-[D-Phenylalanyl-L-isoleucyl-D-hexahydro-1-methyl-3-pyridazinecarbonyl-L-hexahydro-1-methyl-3-pyridazinecarbonyl-N-methyl-D-phenylalanyl-L-prolyl]] (cyclo(I[X15][X16][dNMeF]P[dF]))				5.20	
C=C1C=NN2C(=O)[C@H]3CCC=NN3C(=O)[C@H]([C@@H](C)CC)NC(=S)[C@@H](Cc3ccccc3)NC(=O)[C@@H]3CCCN3C(=O)[C@@H](Cc3ccccc3)N(C)C(=O)[C@@H]2C1 [Example 19, cyclo-[D-Thiophenylalanyl-L-isoleucyl-D-2,3,4,5-tetrahydro-3-pyridazinecarbonyl-5-methylene-L-2,3,4,5-tetrahydro-3-pyridazinecarbonyl-N-methyl-D-phenylalanyl-L-prolyl]]	3.6	> 1000	> 1000		
CC[C@H](C)[C@@H]1NC(=S)[C@@H](Cc2ccccc2)NC(=O)[C@@H]2CCCN2C(=O)[C@@H](Cc2ccccc2)N(C)C(=O)[C@@H]2CCC=NN2C(=O)[C@H]2CCC=NN2C1=O [Example 10, cyclo-[D-Thiophenylalanyl-L-isoleucyl-D-2,3,4,5-tetrahydro-3-pyridazinecarbonyl-L-2,3,4,5-tetrahydro-3-pyridazinecarbonyl-N-methyl-D-phenylalanyl-L-prolyl]] (cyclo(P[X13][dPiz(1,6-dehydro)][Piz(1,6-dehydro)][dNMeF]))	1	300	270		
CC[C@H](C)[C@@H]1NC(=O)[C@@H](Cc2ccccc2)NC(=O)[C@@H]2CCCN2C(=O)[C@@H](Cc2ccccc2)N(C)C(=O)[C@@H]2CCC(=O)NN2C(=O)[C@H]2CCCNN2C1=O [Example 4, cyclo-[D-Phenylalanyl-L-isoleucyl-D-hexahydro-3-pyridazinecarbonyl-L-hexahydro-6-oxo-3-pyridazinecarbonyl-N-methyl-D-phenylalanyl-L-prolyl]] (cyclo(I[X1][X10][dNMeF]P[dF]))		13900	18900	6.66	
CC[C@H](C)[C@@H]1NC(=O)[C@@H](Cc2ccccc2)NC(=O)[C@@H]2CCCN2C(=O)[C@@H](Cc2ccccc2)N(C)C(=O)[C@@H]2CC(NCCN(C)C)C=NN2C(=O)[C@H]2CCC=NN2C1=O (stereo partly drawn) [Example 16, cyclo-[D-Phenylalanyl-L-isoleucyl-D-2,3,4,5-tetrahydro-3-pyridazinecarbonyl-5-((2-dimethylamino)ethylamino)-L-2,3,4,5,-tetrahydro-3-pyridazinecarbonyl-N-methyl-D-phenylalanyl-L-prolyl] (trifluoroacetate) (High Rf isomer)] (cyclo(I[dPiz(1,6-dehydro)][X4][dNMeF]P[dF]))	220	930	7300		
CC[C@H](C)[C@@H]1NC(=O)[C@@H](Cc2ccccc2)NC(=O)[C@@H]2CCCN2C(=O)[C@@H](Cc2ccccc2)N(C)C(=O)[C@@H]2CCC(SCC(=O)OC(C)(C)C)=NN2C(=O)[C@H]2CCC=NN2C1=O [Example 9, cyclo-[D-Phenylalanyl-L-isoleucyl-D-2,3,4,5-tetrahydro-3-pyridazinecarbonyl-6-[[2-(1,1-dimethylethoxy)-2-oxoethyl]thio]-L-2,3,4,5-tetrahydro-3-pyridazine-carbonyl-N-methyl-D-phenylalanyl-L-prolyl]] (cyclo(I[dPiz(1,6-dehydro)][X11][dNMeF]P[dF]))	564		10000		5.00

The remaining compounds from weak to strong by IC50 [1], led by results:

IC50 [1] [nM]	IC50 [2] [nM]	IC50 [3] [nM]	SMILES	pIC50 [1]	pIC50 [2]
785	10000	> 10000	CC[C@H](C)[C@@H]1NC(=O)[C@@H](Cc2ccccc2)NC(=O)[C@@H]2CCCN2C(=O)[C@@H](Cc2ccccc2)N(C)C(=O)[C@@H]2[C@@H](O)[C@@H](O)C=NN2C(=O)[C@H]2CCC=NN2C1=O [Example 13, cyclo-[D-Phenylalanyl-L-isoleucyl-D-2,3,4,5-tetrahydro-3-pyridazinecarbonyl-(3α,4β,5β)-4,5-dihydroxy-L-2,3,4,5-tetrahydro-3-pyridazinecarbonyl-N-methyl-D-phenylalanyl-L-prolyl]] (cyclo(I[dPiz(1,6-dehydro)][X2][dNMeF]P[dF]))		
600	8800	11000	CC[C@H](C)[C@@H]1NC(=O)[C@@H](Cc2ccccc2)NC(=O)[C@@H]2CCCN2C(=O)[C@@H](Cc2ccccc2)N(C)C(=O)[C@@H]2CC(N3CCCC3)C=NN2C(=O)[C@H]2CCC=NN2C1=O (stereo partly drawn) [Example 15, cyclo-[D-Phenylalanyl-L-isoleucyl-D-2,3,4,5-tetrahydro-3-pyridazinecarbonyl-5-(1-pyrolidinyl)-L-2,3,4,5-tetrahydro-3-pyridazinecarbonyl-N-methyl-D-phenylalanyl-L-prolyl] trifluoroacetate] (cyclo(I[dPiz(1,6-dehydro)][X8][dNMeF]P[dF]))		
200	3000	2400	CCOC(=O)C(C(=O)OCC)C1C=NN2C(=O)[C@H]3CCC=NN3C(=O)[C@H]([C@@H](C)CC)NC(=O)[C@@H](Cc3ccccc3)NC(=O)[C@@H]3CCCN3C(=O)[C@@H](Cc3ccccc3)N(C)C(=O)[C@@H]2C1 (stereo partly drawn) [Example 17, cyclo-[D-Phenylalanyl-L-isoleucyl-D-2,3,4,5-tetrahydro-3-pyridazinecarbonyl-5-(2-ethoxy-1-(ethoxycarbonyl)-2-oxoethyl)-L-2,3,4,5,-tetrahydro-3-pyridazinecarbonyl-N-methyl-D-phenylalanyl-L-prolyl] (trifluoroacetate)] (cyclo(I[dPiz(1,6-dehydro)][X14][dNMeF]P[dF]))		
94			CC[C@H](C)[C@@H]1NC(=O)[C@@H](CC2CCCCC2)NC(=O)[C@@H]2CCCN2C(=O)[C@@H](CC2CCCCC2)N(C)C(=O)[C@@H]2CCC=NN2C(=O)[C@H]2CCC=NN2C1=O [Example 2, cyclo-[D-3-Cyclohexylalanyl-L-isoleucyl-D-2,3,4,5-tetrahydro-3-pyidazinecarbonyl-L-2,3,4,5-tetrahydro-3-pyridazinecarbonyl-3-cyclohexyl-N-methyl-D-alanyl-L-prolyl]] (cyclo(I[dPiz(1,6-dehydro)][Piz(1,6-dehydro)][dNMeCha]P[dCha]))		
37	> 10000	> 10000	C=C1C=NN2C(=O)[C@H]3CCC=NN3C(=O)[C@H]([C@@H](C)CC)NC(=O)[C@@H](Cc3ccccc3)NC(=O)[C@@H]3CCCN3C(=O)[C@@H](Cc3ccccc3)N(C)C(=O)[C@@H]2C1 [Example 20, cyclo-[D-Phenylalanyl-L-isoleucyl-D-2,3,4,5-tetrahydro-3-pyridazinecarbonyl-5-methylene-L-2,3,4,5,-tetrahydro-3-pyridazinecarbonyl-N-methyl-D-phenylalanyl-L-prolyl]] (cyclo(I[dPiz(1,6-dehydro)][X3][dNMeF]P[dF]))		
27	820	1020	CC[C@H](C)[C@@H]1NC(=O)[C@@H](Cc2ccccc2)NC(=O)[C@@H]2CCCN2C(=O)[C@@H](Cc2ccccc2)N(C)C(=O)[C@@H]2CCC(SC)=NN2C(=O)[C@H]2CCC=NN2C1=O [Example 5, cyclo-[D-Phenylalanyl-L-isoleucyl-D-2,3,4,5-tetrahydro-3-pyidazinecarbonyl-L-2,3,4,5-tetrahydro-6-methylthio-3-pyridazinecarbonyl-N-methyl-D-phenylalanyl-L-prolyl]] (cyclo(I[dPiz(1,6-dehydro)][X7][dNMeF]P[dF]))		
4.9	200	430	CC[C@H](C)[C@@H]1NC(=S)[C@@H](Cc2ccccc2)NC(=S)[C@@H]2CCCN2C(=O)[C@@H](Cc2ccccc2)N(C)C(=O)[C@@H]2CCC=NN2C(=O)[C@H]2CCC=NN2C1=O [Example 11, cyclo-[D-Thiophenylalanyl-L-isoleucyl-D-2,3,4,5-tetrahydro-3-pyridazinecarbonyl-L-2,3,4,5-tetrahydro-3-pyridazinecarbonyl-N-methyl-D-phenylalanyl-L-thioprolyl]]		
